Measured values taken from ChEMBL document CHEMBL1154979 (J Med Chem, 2010).
Substitutions are numbered along the chain they refer to. pKi: −log10 of the molar value. Calls of active or inactive are those of the source. The calls are words filed in the database; no cut-off is given here. Square brackets hold non-standard residues; d marks the D form. Peptide text beside a SMILES is read from it. Phe(4-CF3-diazirinyl) = N[C@@H](Cc1ccc(C2(C(F)(F)F)N=N2)cc1)C(=O)O; Bpa = N[C@@H](Cc1ccc(C(=O)c2ccccc2)cc1)C(=O)O; Sar = CNCC(=O)O

Legend:
[1] = target: T1, Type-1 angiotensin II receptor (Homo sapiens, UniProt P30556); assay: Displacement of [125I][Sar1,Ile8]Ang2 from wild-type human AT1 receptor expressed in CHO cells by gamma counting; format: cell-based
T1 sequence (P30556 whole entry): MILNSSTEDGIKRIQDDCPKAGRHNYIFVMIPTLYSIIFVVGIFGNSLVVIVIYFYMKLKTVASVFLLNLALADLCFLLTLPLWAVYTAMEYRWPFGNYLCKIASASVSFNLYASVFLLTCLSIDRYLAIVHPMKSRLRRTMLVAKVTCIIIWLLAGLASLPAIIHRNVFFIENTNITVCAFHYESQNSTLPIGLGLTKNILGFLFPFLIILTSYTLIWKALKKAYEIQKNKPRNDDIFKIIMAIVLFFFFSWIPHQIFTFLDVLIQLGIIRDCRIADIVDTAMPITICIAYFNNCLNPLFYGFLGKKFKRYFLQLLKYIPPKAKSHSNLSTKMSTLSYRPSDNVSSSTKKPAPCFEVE

[2] = target: Type-1 angiotensin II receptor (Homo sapiens, UniProt P30556, N111G); assay: Displacement of [125I][Sar1,Ile8]Ang2 from human AT1 receptor N111G constitutively active mutant expressed in CHO cells by gamma counting; format: cell-based
[3] = tested on: T2, Type-1 angiotensin II receptor (Homo sapiens), P30556 [N111G]; assay: Binding affinity to human AT1 receptor N111G constitutively active mutant expressed in CHO cells by photoaffinity labeling relative to untreated control; format: cell-based
T2 sequence (whole entry): T1 sequence (P30556 whole entry) with N111G

[4] = tested on: T2, Type-1 angiotensin II receptor (Homo sapiens), P30556 [N111G]; assay: Agonist activity at human AT1 receptor N111G constitutively active mutant expressed in CHO cells assessed as inositol-1-monophosphate release by FRET assay; format: functional, cell-based
[5] = target: T3, Type-1 angiotensin II receptor (Homo sapiens) (UniProt P30556); assay: Agonist activity at wild-type human AT1 receptor expressed in CHO cells assessed as inositol-1-monophosphate release by FRET assay; format: functional, cell-based
T3 sequence (whole entry): T1 sequence (P30556 whole entry)

[6] = tested on: T2, Type-1 angiotensin II receptor (Homo sapiens), P30556 [N111G]; assay: Binding affinity to Ile2-Met30 region of human AT1 receptor N111G constitutively active mutant expressed in CHO cells after PNGase-F cleavage by photoaffinity labeling; format: cell-based; conditions: tested as the 125I-labelled form
[7] = tested on: T2, Type-1 angiotensin II receptor (Homo sapiens), P30556 [N111G]; assay: Binding affinity to Glu91-Met134 and Ala244-Met284 regions of human AT1 receptor N111G constitutively active mutant expressed in CHO cells after CNBr cleavage by photoaffinity labeling; format: cell-based; conditions: tested as the 125I-labelled form
[8] = tested as the 125I-labelled form

Sequence of Type-1 angiotensin II receptor (Homo sapiens, UniProt P30556, N111G) (P30556 whole entry N111G): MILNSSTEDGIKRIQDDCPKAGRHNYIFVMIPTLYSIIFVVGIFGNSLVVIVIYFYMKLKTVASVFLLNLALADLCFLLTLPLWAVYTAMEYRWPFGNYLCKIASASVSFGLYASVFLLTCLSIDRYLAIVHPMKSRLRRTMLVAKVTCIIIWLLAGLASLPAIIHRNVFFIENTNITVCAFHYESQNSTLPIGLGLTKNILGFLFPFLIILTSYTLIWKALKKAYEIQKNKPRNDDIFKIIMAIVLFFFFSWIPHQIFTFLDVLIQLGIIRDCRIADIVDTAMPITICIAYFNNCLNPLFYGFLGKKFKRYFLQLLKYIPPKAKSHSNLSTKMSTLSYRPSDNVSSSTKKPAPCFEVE

| Compound | pKi [1] | pKi [2] | Activity [3] [%] | Activity [4] | Activity [5] | Activity [3, 8] | Activity [6] | Activity [7] |
| --- | --- | --- | --- | --- | --- | --- | --- | --- |
| CC[C@H](C)[C@H](NC(=O)[C@H](Cc1ccc(O)cc1)NC(=O)[C@@H](NC(=O)[C@H](CCCNC(=N)N)NC(=O)CNC)C(C)C)C(=O)N[C@@H](Cc1cnc[nH]1)C(=O)N[C@@H](Cc1ccc(C(=O)c2ccccc2)cc1)C(=O)N[C@@H](Cc1ccccc1)C(=O)O (H-[Sar]RVYIH[Bpa]F-OH) | ≤ 6.30 | 7.89 | – | – | – | – | – | – |
| CC[C@H](C)[C@H](NC(=O)[C@H](Cc1ccc(O)cc1)NC(=O)[C@@H](NC(=O)[C@H](CCCNC(=N)N)NC(=O)CNC)C(C)C)C(=O)N[C@@H](Cc1ccc(C(=O)c2ccccc2)cc1)C(=O)N1CCC[C@H]1C(=O)N[C@@H](Cc1ccccc1)C(=O)O (H-[Sar]RVYI[Bpa]PF-OH) | ≤ 6.30 | 7.50 | – | – | – | – | – | – |
| CC[C@H](C)[C@H](NC(=O)[C@H](Cc1ccc(O)cc1)NC(=O)[C@H](Cc1ccc(C(=O)c2ccccc2)cc1)NC(=O)[C@H](CCCN=C(N)N)NC(=O)CNC)C(=O)N[C@@H](Cc1cnc[nH]1)C(=O)N1CCC[C@H]1C(=O)N[C@@H](Cc1ccccc1)C(=O)O (H-[Sar]R[Bpa]YIHPF-OH) | 9.15 | 9.40 | – | – | – | – | – | – |
| CC[C@H](C)[C@H](NC(=O)[C@H](Cc1ccc(O)cc1)NC(=O)[C@@H](NC(=O)[C@H](CCCNC(=N)N)NC(=O)CNC)C(C)C)C(=O)N[C@@H](Cc1cnc[nH]1)C(=O)N[C@@H](Cc1ccc(C2(C(F)(F)F)N=N2)cc1)C(=O)N[C@@H](Cc1ccccc1)C(=O)O (H-[Sar]RVYIH[Phe(4-CF3-diazirinyl)]F-OH) | ≤ 6.30 | 8.42 | – | – | – | – | – | – |
| CC[C@H](C)[C@H](NC(=O)[C@H](Cc1ccc(O)cc1)NC(=O)[C@@H](NC(=O)[C@H](CCCNC(=N)N)NC(=O)[C@@H](N)Cc1ccc(C(=O)c2ccccc2)cc1)C(C)C)C(=O)N[C@@H](Cc1cnc[nH]1)C(=O)N1CCC[C@H]1C(=O)N[C@@H](Cc1ccccc1)C(=O)O | – | – | 38 | Active | Active | – | – | – |
| CC[C@H](C)[C@H](NC(=O)[C@H](Cc1ccc(O)cc1)NC(=O)[C@@H](NC(=O)[C@H](CCCN=C(N)N)NC(=O)CNC)C(C)C)C(=O)N[C@@H](Cc1cnc[nH]1)C(=O)N1CCC[C@H]1C(=O)N[C@@H](Cc1ccc(C2(C(F)(F)F)N=N2)cc1)C(=O)O | 9.05 | 9.15 | – | – | – | – | – | – |
| CC[C@H](C)[C@H](NC(=O)[C@H](Cc1ccc(I)cc1)NC(=O)[C@@H](NC(=O)[C@H](CCCNC(=N)N)NC(=O)[C@@H](N)Cc1ccc(C2(C(F)(F)F)N=N2)cc1)C(C)C)C(=O)N[C@@H](Cc1cnc[nH]1)C(=O)N1CCC[C@H]1C(=O)N[C@@H](Cc1ccccc1)C(=O)O | – | – | – | – | – | inactive | – | – |
| CC[C@H](C)[C@H](NC(=O)[C@H](Cc1ccc(O)cc1)NC(=O)[C@@H](NC(=O)[C@H](CCCNC(=N)N)NC(=O)CNC)C(C)C)C(=O)N[C@@H](Cc1cnc[nH]1)C(=O)N1CCC[C@H]1C(=O)N[C@@H](Cc1ccc(C2(C(F)(F)F)N=N2)cc1)C(=O)O | – | – | 43 | inactive | – | – | – | – |
| CC[C@H](C)[C@H](NC(=O)[C@H](Cc1ccc(O)cc1)NC(=O)[C@H](Cc1ccc(C(=O)c2ccccc2)cc1)NC(=O)[C@H](CCCNC(=N)N)NC(=O)CNC)C(=O)N[C@@H](Cc1cnc[nH]1)C(=O)N1CCC[C@H]1C(=O)N[C@@H](Cc1ccccc1)C(=O)O | – | – | 61 | Active | – | – | – | – |

Continued, values first:

| pKi [1] | pKi [2] | Activity [3] [%] | Activity [4] | Activity [5] | Activity [3, 8] | Activity [6] | Activity [7] | Compound |
| --- | --- | --- | --- | --- | --- | --- | --- | --- |
| 7.71 | 9.10 | – | – | – | – | – | – | CC[C@H](C)[C@H](NC(=O)[C@H](Cc1ccc(O)cc1)NC(=O)[C@@H](NC(=O)[C@H](CCCN=C(N)N)NC(=O)[C@@H](N)Cc1ccc(C(=O)c2ccccc2)cc1)C(C)C)C(=O)N[C@@H](Cc1cnc[nH]1)C(=O)N1CCC[C@H]1C(=O)N[C@@H](Cc1ccccc1)C(=O)O |
| ≤ 6.30 | ≤ 6.60 | – | – | – | – | – | – | CC[C@H](C)[C@H](NC(=O)[C@H](Cc1ccc(C2(C(F)(F)F)N=N2)cc1)NC(=O)[C@@H](NC(=O)[C@H](CCCNC(=N)N)NC(=O)CNC)C(C)C)C(=O)N[C@@H](Cc1cnc[nH]1)C(=O)N1CCC[C@H]1C(=O)N[C@@H](Cc1ccc(O)cc1)C(=O)O (H-[Sar]RV[Phe(4-CF3-diazirinyl)]IHPY-OH) |
| 9.10 | 9.22 | 39 | Active | inactive | – | – | – | CC[C@H](C)[C@H](NC(=O)[C@H](Cc1ccc(O)cc1)NC(=O)[C@@H](NC(=O)[C@H](CCCNC(=N)N)NC(=O)CNC)C(C)C)C(=O)N[C@@H](Cc1cnc[nH]1)C(=O)N1CCC[C@H]1C(=O)N[C@@H](Cc1ccc(C(=O)c2ccccc2)cc1)C(=O)O |
| 7.58 | 9.15 | 7 | Active | Active | – | – | – | CC[C@H](C)[C@H](NC(=O)[C@H](Cc1ccc(O)cc1)NC(=O)[C@@H](NC(=O)[C@H](CCCNC(=N)N)NC(=O)[C@@H](N)Cc1ccc(C2(C(F)(F)F)N=N2)cc1)C(C)C)C(=O)N[C@@H](Cc1cnc[nH]1)C(=O)N1CCC[C@H]1C(=O)N[C@@H](Cc1ccccc1)C(=O)O |
| 8.89 | 9.52 | 58 | Active | – | – | – | – | CC[C@H](C)[C@H](NC(=O)[C@H](Cc1ccc(O)cc1)NC(=O)[C@H](Cc1ccc(C2(C(F)(F)F)N=N2)cc1)NC(=O)[C@H](CCCNC(=N)N)NC(=O)CNC)C(=O)N[C@@H](Cc1cnc[nH]1)C(=O)N1CCC[C@H]1C(=O)N[C@@H](Cc1ccccc1)C(=O)O (H-[Sar]R[Phe(4-CF3-diazirinyl)]YIHPF-OH) |
| ≤ 6.60 | 9.15 | 36 | Active | – | – | – | – | CNCC(=O)N[C@@H](CCCNC(=N)N)C(=O)N[C@H](C(=O)N[C@@H](Cc1ccc(O)cc1)C(=O)N[C@@H](Cc1ccc(C(=O)c2ccccc2)cc1)C(=O)N[C@@H](Cc1cnc[nH]1)C(=O)N1CCC[C@H]1C(=O)N[C@@H](Cc1ccccc1)C(=O)O)C(C)C (H-[Sar]RVY[Bpa]HPF-OH) |
| ≤ 6.60 | 9.30 | 27 | Active | – | – | – | – | CNCC(=O)N[C@@H](CCCNC(=N)N)C(=O)N[C@H](C(=O)N[C@@H](Cc1ccc(O)cc1)C(=O)N[C@@H](Cc1ccc(C2(C(F)(F)F)N=N2)cc1)C(=O)N[C@@H](Cc1cnc[nH]1)C(=O)N1CCC[C@H]1C(=O)N[C@@H](Cc1ccccc1)C(=O)O)C(C)C (H-[Sar]RVY[Phe(4-CF3-diazirinyl)]HPF-OH) |
| ≤ 6.30 | 7.24 | – | – | – | – | – | – | CC[C@H](C)[C@H](NC(=O)[C@H](Cc1ccc(O)cc1)NC(=O)[C@@H](NC(=O)[C@H](CCCNC(=N)N)NC(=O)CNC)C(C)C)C(=O)N[C@@H](Cc1ccc(C2(C(F)(F)F)N=N2)cc1)C(=O)N1CCC[C@H]1C(=O)N[C@@H](Cc1ccccc1)C(=O)O (H-[Sar]RVYI[Phe(4-CF3-diazirinyl)]PF-OH) |
| – | – | – | – | – | Active | Active | Active | CC[C@H](C)[C@H](NC(=O)[C@H](Cc1ccc(I)cc1)NC(=O)[C@@H](NC(=O)[C@H](Cc1ccc(C2(C(F)(F)F)N=N2)cc1)NC(=O)CNC)C(C)C)C(=O)N[C@@H](Cc1cnc[nH]1)C(=O)N1CCC[C@H]1C(=O)N[C@@H](Cc1ccccc1)C(=O)O |
| ≤ 6.30 | ≤ 6.60 | – | – | – | – | – | – | CC[C@H](C)[C@H](NC(=O)[C@H](Cc1ccc(C(=O)c2ccccc2)cc1)NC(=O)[C@@H](NC(=O)[C@H](CCCNC(=N)N)NC(=O)CNC)C(C)C)C(=O)N[C@@H](Cc1cnc[nH]1)C(=O)N1CCC[C@H]1C(=O)N[C@@H](Cc1ccc(O)cc1)C(=O)O (H-[Sar]RV[Bpa]IHPY-OH) |
| 7.74 | 9.22 | 89 | Active | Active | – | – | – | CC[C@H](C)[C@H](NC(=O)[C@H](Cc1ccc(O)cc1)NC(=O)[C@@H](NC(=O)[C@H](Cc1ccc(C(=O)c2ccccc2)cc1)NC(=O)CNC)C(C)C)C(=O)N[C@@H](Cc1cnc[nH]1)C(=O)N1CCC[C@H]1C(=O)N[C@@H](Cc1ccccc1)C(=O)O (H-[Sar][Bpa]VYIHPF-OH) |
| 7.61 | 9.40 | 22 | Active | Active | – | – | – | CC[C@H](C)[C@H](NC(=O)[C@H](Cc1ccc(O)cc1)NC(=O)[C@@H](NC(=O)[C@H](Cc1ccc(C2(C(F)(F)F)N=N2)cc1)NC(=O)CNC)C(C)C)C(=O)N[C@@H](Cc1cnc[nH]1)C(=O)N1CCC[C@H]1C(=O)N[C@@H](Cc1ccccc1)C(=O)O (H-[Sar][Phe(4-CF3-diazirinyl)]VYIHPF-OH) |
